Usually IC50 stands for the concentration that gives 50% inhibition.

Each structure is given as a SMILES string.

For this assay, the system named is L929 cell line (mouse fibroblastoma cell line). The assay can be described thus: L929 cell viability assay (mTNF-α + Z-VAD-FMK induced necroptosis). It counts as cell-based. Particulars: Mus musculus, L929, 20 h, L929 cells, mTNF-α 0.1 μg/mL + Z-VAD-FMK 5 μM, CellTiter-Glo. Here is the method:
L929 cell line (mouse fibroblastoma cell line): purchased from ATCC (American Type Culture Collection) Cell Bank, cultured in 5% CO2, 37° C. incubator, and MEM medium which contains L-Glutamine, with 10% FBS was used. • MEM medium: GIBCO, Cat #11095080; • Fetal bovine serum (FBS): GIBCO, Cat #10099-141C; • Dimethyl sulfoxide (DMSO): Sigma, Cat #D2650; • 0.25% Trypsin-EDTA: GIBCO, Cat #25200072; • Recombinant Mouse TNF-alpha Protein (mTNF-α): R&D system, Cat #410-MT-050; • Pan-Caspase inhibitor (Z-VAD-FMK): Selleckchem, Cat #S7023; • CellTiter-Glo 2.0 Cell Viability Assay kit: Promega, Cat #G9242; • Microwell plate reader: Envision, Perkin Elmer; • 96-well plate: Corning, Cat #3917.
The L929 cells at the logarithmic phase were taken out, and the supernatant was discarded. After trypsinization and cell shedding, 10% FBS-containing medium was added for neutralization, and the supernatant was discarded after centrifugation. The cells were re-suspended using 10% FBS-containing medium, adjusted to 7×10^4 cells/ml, added to 96-well microplate at 70 μL/well, i.e., 4.9×10^3 cells/well. Then the plate was incubated in a 5% CO2, 37° C. cell incubator overnight.
After incubating overnight, the 96-well plate was taken out, the medium was discarded, and the plate was washed with 1% FBS-containing MEM medium. Then 1% FBS-containing MEM medium was added at 70 μL/well, and the plate was cultured in a 5% CO2, 37° C. cell incubator. After incubating for 1 hour, the test compound was diluted to the corresponding concentrations using DMSO with 3-fold serial dilution, then the corresponding concentration of DMSO diluted solution was diluted into 1% FBS-containing MEM medium, and 10 μL/well of the diluted test compound with different concentrations (final concentrations of test compound were 10, 3.33, 1.11, 0.37, 0.12, 0.04, 0.014 and 0.005 μM, while final concentration of DMSO was 0.3%) or 10 μL/well control solution (3% DMSO) were added to the cell culture system respectively, with the total volume being 80 μL/well. Then 10 μL of Z-VAD-FMK solution diluted with 1% FBS-containing MEM medium (final concentration of 5 μM) or 10 μL of control solution (2.5% DMSO) was added to each well, with the total volume being 90 μL/well. The plate was incubated in a 5% CO2, 37° C. cell culture incubator for 1 hour.
After incubating for 1 hour, 10 μL of recombinant mouse TNF-α protein solution diluted with 1% FBS-containing MEM medium (final concentration of 0.1 μg/mL) or 10 μL control solution (1% FBS-containing MEM medium) was added to each well. The plate was incubated in a 5% CO2, 37° C. cell culture incubator for 20 hours.
The cell culture plate was taken out from the incubator, and left to stand at room temperature for 30 minutes. Meanwhile, CellTiter-Glo viability assay kit was put from freezer to room temperature, and 50 μL of CellTiter-Glo reagent was added to all wells, the plate was shaken for 1 minutes, protected from light at room temperature for 10 minutes then read the plate on Envision to get the luminescence signal.
The 96-well plate in the dark was taken out, and the chemiluminescence was determined using the Envision microwell plate reader as the signal value of each well.
The mean signal value of the wells of the mixed solution of recombinant mouse TNF-alpha protein (final concentration of 0.1 μg/mL) and Pan-Caspase inhibitor (final concentration of 5 μM) was used as the lower value, and the mean signal value of the wells without stimulation was used as the upper value. According to the signal value of each well, the inhibition rate of each concentration of every compound was calculated, and the IC50 value of compound was obtained by Model 205 in XL-Fit 5.3 software (ID Business Solutions Limited).
Inhibition rate %=[(Luminescence readout of treated compound−Luminescence readout of positive control)/(Luminescence readout of negative control−Luminescence readout of positive control)]×100%, wherein

As to `CC(C)n1cncc(-c2ccc(C3(NC(=O)c4ncc5cnn(C(C)C6CC6)c5n4)CC3)cc2)c1=O` (racemic) [Compound 59, 1-(1-cyclopropylethyl)-N-(1-(4-(1-i-propyl-6-oxo-1,6-dihydropyrimidin-5-yl)phenyl)cyclopropyl)-1H-pyrazolo[3,4-d]pyrimidine-6-carboxamide], the IC50 is 17 nM. The figure for `CC(C)n1ncc2cnc(C(=O)NC3(c4ccc(-c5cncn([C@H](C)C(F)(F)F)c5=O)cc4F)CC3)nc21` (stereo in doubt) [Compound 46] is 19 nM; for `CC(C)n1ncc2cnc(C(=O)NC3(c4ccc(-c5cncn([C@@H](C)C(F)(F)F)c5=O)cc4F)CC3)nc21` (stereo in doubt) [Compound 47] it is 24 nM.

Turning to `CC(C)n1ncc2cnc(C(=O)NC3(c4ccc(-c5cncn(C6CCOC6)c5=O)cc4)CC3)nc21` (stereo in doubt) [Compound 80, (R)-1-i-propyl-N-(1-(4-(6-oxo-1-(tetrahydrofuran-3-yl)-1,6-dihydropyrimidin-5-yl)phenyl)cyclopropyl)-1H-pyrazolo[3,4-d]pyrimidine-6-carboxamide], the IC50 is 297 nM. To `CC(C)n1ncc2cnc(C(=O)NC3(c4ccc(-c5cncn(C6CCOC6)c5=O)cc4)CC3)nc21` (stereo in doubt) [Compound 81, (S)-1-i-propyl-N-(1-(4-(6-oxo-1-(tetrahydrofuran-3-yl)-1,6-dihydropyrimidin-5-yl)phenyl)cyclopropyl)-1H-pyrazolo[3,4-d]pyrimidine-6-carboxamide] belongs 258 nM.

Regarding `CC(C#N)n1cncc(-c2ccc(C3(NC(=O)c4ncc5cnn(C(C)C)c5n4)CC3)cc2)c1=O` (stereo in doubt) [Compound 82, (R)—N-(1-(4-(1-(1-cyanoethyl)-6-oxo-1,6-dihydropyrimidin-5-yl)phenyl)cyclopropyl)-1-i-propyl-1H-pyrazolo[3,4-d]pyrimidine-6-carboxamide], the IC50 came to 359 nM. On to `CC(C#N)n1cncc(-c2ccc(C3(NC(=O)c4ncc5cnn(C(C)C)c5n4)CC3)cc2)c1=O` (stereo in doubt) [Compound 83, (S)—N-(1-(4-(1-(1-cyanoethyl)-6-oxo-1,6-dihydropyrimidin-5-yl)phenyl)cyclopropyl)-1-i-propyl-1H-pyrazolo[3,4-d]pyrimidine-6-carboxamide], for which the 50% inhibitory concentration (IC50) was 199 nM.

Regarding `CC(C)n1ncc2cnc(C(=O)NC3(c4ccc(-c5cncn(C)c5=O)cc4)CC3)nc21` [Compound 1, 1-isopropyl-N-(1-(4-(1-methyl-6-oxo-1,6-dihydropyrimidin-5-yl)phenyl)cyclopropyl)-1H-pyrazolo[3,4-d]pyrimidine-6-carboxamide], the concentration for half-maximal inhibition (IC50) was found to be 1250 nM. `CC(C)n1ncc2cnc(C(=O)NC3(c4ccc(-c5cncn(C)c5=O)cn4)CC3)nc21` [Compound 2]: the 50% inhibitory concentration (IC50) is 7450 nM. For the compound `Cn1cncc(-c2ccc(C3(NC(=O)c4nnc(Cc5ccccc5)[nH]4)CC3)cc2)c1=O` [Compound 3], the 50% inhibitory concentration (IC50) was determined as 4280 nM. To `Cn1cncc(-c2ccc(C3(NC(=O)c4ncc5cnn(-c6ccccc6)c5n4)CC3)cc2)c1=O` [Compound 4] belongs 721 nM.

For `Cn1cncc(-c2ccc(C3(NC(=O)c4cc(Cc5ccccc5)on4)CC3)cc2)c1=O` [Compound 5], the IC50 was found to be 2500 nM.

For `CC(C)Cc1nc(C(=O)NC2(c3ccc(-c4cncn(C)c4=O)cc3)CC2)ncc1Cl` [Compound 6], the IC50 amounted to 299 nM. To `Cn1cncc(-c2ccc(C3(NC(=O)c4ncn(Cc5ccccc5)n4)CC3)cc2)c1=O` [Compound 8] belongs 1760 nM; to `Cn1cncc(-c2ccc(C3(NC(=O)c4noc(Cc5ccccc5)n4)CC3)cc2)c1=O` [Compound 9], 2810 nM; to `Cn1cncc(-c2ccc(C3(NC(=O)c4ncc(Cc5ccccc5)o4)CC3)cc2)c1=O` [Compound 10], 676 nM. For the compound `Cn1cncc(-c2ccc(C3(NC(=O)c4nnc(Cc5ccccc5)o4)CC3)cc2)c1=O` [Compound 11], the IC50 worked out at 9120 nM. The figure for `CC(C)n1ncc2cnc(C(=O)NC3(c4ccc(-c5cncn(C6CC6)c5=O)cc4)CC3)nc21` [Compound 12] is 1020 nM; for `CC(C)n1cncc(-c2ccc(C3(NC(=O)c4nnc(Cc5ccccc5)o4)CC3)cc2)c1=O` [Compound 13] it is 195 nM.

For the compound `CC(C)n1cncc(-c2ccc(C3(NC(=O)c4nc5n(n4)[C@@H](c4ccccc4)CC5)CC3)cc2)c1=O` [Compound 15], the IC50 was found to be 2360 nM.

Consider `CC(C)n1cncc(-c2ccc(C3(NC(=O)c4nc5n(n4)[C@H](c4ccccc4)CC5)CC3)cc2)c1=O` [Compound 16], for which the IC50 is 7 nM. Consider `CC(C)n1cncc(-c2ccc(C3(NC(=O)c4ncn(Cc5ccccc5)n4)CC3)cc2)c1=O` [Compound 17], for which the IC50 was 25 nM. The figure for `Cn1cncc(-c2ccc(C3(NC(=O)c4nnc(Cc5c(F)cccc5F)[nH]4)CC3)cc2)c1=O` [Compound 18] is 1720 nM; for `CC(C)n1cncc(-c2ccc(C3(NC(=O)c4ncc5cnn(-c6ccccc6)c5n4)CC3)cc2)c1=O` [Compound 19] it is 61 nM; for `CC(C)Cc1nc(C(=O)NC2(c3ccc(-c4cncn(C(C)C)c4=O)cc3)CC2)ncc1Cl` [Compound 22] it is 28 nM. To `CC(C)n1ncc2cnc(C(=O)NC3(c4ccc(-c5cncn(C)c5=O)c(F)c4)CC3)nc21` [Compound 23, N-(1-(3-fluoro-4-(1-methyl-6-oxo-1,6-dihydropyrimidin-5-yl)phenyl)cyclopropyl)-1-isopropyl-1H-pyrazolo[3,4-d]pyrimidine-6-carboxamide] belongs 2700 nM; to `CC(C)n1ncc2cnc(C(=O)NC3(c4ccc(-c5cncn(C)c5=O)c(Cl)c4)CC3)nc21` [Compound 25], 7600 nM; to `CC(C)n1ncc2cnc(C(=O)NC3(c4ccc(-c5cncn(C)c5=O)cc4F)CC3)nc21` [Compound 26], 846 nM.

For the compound `CC(C)n1ncc2cnc(C(=O)NC3(c4ccc(-c5cncn(C)c5=O)cc4)CC3)cc21` [Compound 28, 1-isopropyl-N-(1-(4-(1-methyl-6-oxo-1,6-dihydropyrimidin-5-yl)phenyl)cyclopropyl)-1H-pyrazolo[4,3-c]pyridine-6-carboxamide], the half-inhibitory concentration (IC50) was 5700 nM.

Regarding `CC(C)n1cncc(-c2ccc(C3(NC(=O)c4ncc5cnn(C(C)C)c5n4)CC3)cc2)c1=O` [Compound 29, 1-isopropyl-N-(1-(4-(1-isopropyl-6-oxo-1,6-dihydropyrimidin-5-yl)phenyl)cyclopropyl)-1H-pyrazolo[3,4-d]pyrimidine-6-carboxamide], the concentration for half-maximal inhibition (IC50) is 34 nM. The figure for `CC(C)n1ncc2cnc(C(=O)NC3(c4ccc(-c5cnc(N)n(C)c5=O)cc4)CC3)nc21` [Compound 30] is 2590 nM; for `CC(C)n1cncc(-c2ccc(C3(NC(=O)c4ncc5cnn(C(C)C)c5n4)CC3)cc2Cl)c1=O` [Compound 33] it is 665 nM. To `CC(C)n1cncc(-c2ccc(C3(NC(=O)c4ncc5cnn(C(C)C)c5n4)CC3)c(F)c2)c1=O` [Compound 34] belongs 78 nM; to `CC(C)n1cncc(-c2ccc(C3(NC(=O)c4ncc5cnn(C(C)C)c5n4)CC3)cc2F)c1=O` [Compound 35], 154 nM; to `CC(C)n1ncc2cnc(C(=O)NC3(c4ccc(-c5cncn(CC6CC6)c5=O)cc4)CC3)nc21` [Compound 36], 84 nM. As to `CCn1cncc(-c2ccc(C3(NC(=O)c4ncc5cnn(C(C)C)c5n4)CC3)cc2)c1=O` [Compound 37], the IC50 is 186 nM.

The values above are taken from patent publication US20240002388A1, “PYRIMIDINONE COMPOUNDS AND USES THEREOF” (HUTCHISON MEDIPHARMA LIMITED, priority 2020, published 2024).
